Measurements as given in patent US20260062422A1 (Halda Therapeutics OpCo, Inc., priority 2022, published 2026).

System: T-Rex 293 cell line SC cells lacking increased expression of progesterone receptor isoform B protein
Test: Cellular growth inhibition, T-Rex 293 SC cells without doxycycline, Example 47
Type: cell-based
Conditions: T-Rex 293 SC cells not exposed to doxycycline, 72 hours, CellTiter-Glo 2.0; Table 15 (Example 47)
Method: The following types of cells were prepared for this experiment: (i) a T-Rex 293 cell line having increased expression of progesterone receptor isoform B protein due to exposure to doxycycline and (ii) a T-Rex 293 cell line lacking increased expression of progesterone receptor isoform B protein. Ability of the test compounds to inhibit proliferation of the foregoing cell types was evaluated according to the procedures set forth below.
The doxycycline-inducible progesterone receptor isoform B protein expressing cell line was established using the following protocol: T-Rex 293 cells were purchased from Invitrogen (Cat #R71007) and transfected using Lipofectamine 2000 with the wild-type progesterone receptor B protein sequence cloned into the pcDNA4/TO vector. Transfected cells were selected using 400 μg/mL Zeocin (Invitrogen Cat #R25001). Following selection, single clones were raised and maintained in Dulbecco's Modified Eagle Medium (DMEM) supplemented with 10% w/w Tetracycline-free fetal bovine serum (FBS) and 250 μg/mL Zeocin. Clones were analyzed for expression of progesterone receptor isoform B protein in the presence and absence of 10 ng/mL doxycycline (Sigma Cat #D9891), and a single doxycycline-inducible clone (hereinafter “SC”) was selected for use in downstream assays.
The SC cells were seeded on poly-D-lysine coated, black clear-bottom 384-well plates at 2500/well, in 25 μL Phenol Red Free Dulbecco's Modified Eagle Medium (DMEM) supplemented with 10% w/w charcoal-dextran treated fetal bovine serum (FBS) and 1% w/w pen-strep, with or without 10 ng/mL doxycycline. Pen-Strep is a commercially available mixture of penicillin G and streptomycin, which is used in mammalian cell culture media to prevent bacterial contamination. Phenol Red Free Dulbecco's Modified Eagle Medium (DMEM) supplemented with 10% w/w charcoal-dextran treated fetal bovine serum (FBS) and 1% w/w pen-strep, with or without 10 ng/mL doxycycline is herein referred to as Treatment Medium. Following seeding of cells in the plates, the plates were spun at 300×g for 30 seconds, then equilibrated to room temperature for 30 minutes, and then deposited in a humidified tissue culture incubator maintained at 37° C. with 5% CO2.
At 24 hours after seeding of the cells, dilutions of test compound were prepared in DMSO and dissolved in Treatment Medium, to achieve a final DMSO concentration of 0.5% w/w, thereby providing the Test Compound Solution. A 25 μL aliquot of the Test Compound Solution was added to cells in the well plates. An equal volume of a solution containing DMSO and Treatment Medium was used as a negative control. Following treatment of cells with Test Compound Solution or said equal volume of a solution containing DMSO and Treatment Medium, the plates were spun at 300×g for 30 seconds, and then left in an incubator for 72 hours.
At the end of the treatment duration, cell viability was quantified with CellTiter-Glo 2.0 reagent (Promega Cat #G9243). For this purpose, plates were equilibrated to room temperature for 30 minutes, and then 25 μL of CellTiter-Glo 2.0 reagent was added to cells in the plate wells. Plates were then agitated on a shaker for two minutes at 500 rpm and subsequently incubated at room temperature for 10 minutes. Following incubation, the plates were spun at 3000×g for 30 seconds, then sealed with an optical adhesive cover, and luminescence readings were measured with an EnVision Plate Reader (Perkin Elmer).
Data was normalized using zero luminescence for baseline. A four-parameter non-linear regression curve fit was applied to dose-response data in GraphPad Prism data analysis software to determine the half-maximal growth inhibitory concentration (GI50) for each test compound.

Cc1sc2c(c1C)C(c1ccc(Cl)cc1)=N[C@@H](CC(=O)NCCOCCOCCOCCOCCN(C)c1ncc(C(=O)N[C@H]3C(C)(C)[C@H](Oc4ccc(C#N)c(Cl)c4)C3(C)C)cn1)c1nnc(C)n1-2 [Compound I-3, N-((1r,3r)-3-(3-chloro-4-cyanophenoxy)-2,2,4,4-tetramethylcyclobutyl)-2-((1-((S)-4-(4-chlorophenyl)-2,3,9-trimethyl-6H-thieno[3,2-f][1,2,4]triazolo[4,3-a][1,4]diazepin-6-yl)-2-oxo-6,9,12,15-tetraoxa-3-azaheptadecan-17-yl)(methyl)amino)pyrimidine-5-carboxamide]
GI50: 1500 to 3000 nM

Cc1sc2c(c1C)C(c1ccc(Cl)cc1)=N[C@@H](CC(=O)NCCOCCOCCOCCOCCOCCOCCN(C)c1ncc(C(=O)N[C@H]3C(C)(C)[C@H](Oc4ccc(C#N)c(Cl)c4)C3(C)C)cn1)c1nnc(C)n1-2 [Compound I-4]
GI50: 1500 to 3000 nM

Cc1sc2c(c1C)C(c1ccc(Cl)cc1)=N[C@@H](CC(=O)NCCOC1CCN(c3ncc(C(=O)N[C@H]4C(C)(C)[C@H](Oc5ccc(C#N)c(Cl)c5)C4(C)C)cn3)CC1)c1nnc(C)n1-2 [Compound I-6]
GI50: < 500 nM

Cc1sc2c(c1C)C(c1ccc(Cl)cc1)=N[C@@H](CC(=O)NCCOCCOCCOCCOCCOC1CCN(c3ncc(C(=O)N[C@H]4C(C)(C)[C@H](Oc5ccc(C#N)c(Cl)c5)C4(C)C)cn3)CC1)c1nnc(C)n1-2 [Compound I-8]
GI50: 500 to 1500 nM

Cc1sc2c(c1C)C(c1ccc(Cl)cc1)=N[C@@H](CC(=O)NCCOCCOCCOCCOC1CCN(c3ncc(C(=O)N[C@H]4C(C)(C)[C@H](Oc5ccc(C#N)c(Cl)c5)C4(C)C)cn3)CC1)c1nnc(C)n1-2 [Compound I-11]
GI50: < 500 nM

Cc1sc2c(c1C)C(c1ccc(Cl)cc1)=N[C@H](CC(=O)NCCOCCOCCOCCOC1CCN(c3ncc(C(=O)N[C@H]4C(C)(C)[C@H](Oc5ccc(C#N)c(Cl)c5)C4(C)C)cn3)CC1)c1nnc(C)n1-2 [Compound I-13]
GI50: 1500 to 3000 nM

Cc1sc2c(c1C)C(c1ccc(Cl)cc1)=N[C@H](CC(=O)NCCOCCOCCOCCOCCOC1CCN(c3ncc(C(=O)N[C@H]4C(C)(C)[C@H](Oc5ccc(C#N)c(Cl)c5)C4(C)C)cn3)CC1)c1nnc(C)n1-2 [Compound I-14]
GI50: 1500 to 3000 nM

Cc1sc2c(c1C)C(c1ccc(Cl)cc1)=N[C@@H](CC(=O)NCCOCCOCCOCC1CCN(c3ncc(C(=O)N[C@H]4C(C)(C)[C@H](Oc5ccc(C#N)c(Cl)c5)C4(C)C)cn3)CC1)c1nnc(C)n1-2 [Compound I-17]
GI50: > 3000 nM

Cc1sc2c(c1C)C(c1ccc(Cl)cc1)=N[C@H](CC(=O)NCCOCCOCCOCCOCCN(C)c1ncc(C(=O)N[C@H]3C(C)(C)[C@H](Oc4ccc(C#N)c(Cl)c4)C3(C)C)cn1)c1nnc(C)n1-2 [Compound I-19]
GI50: 1500 to 3000 nM

Cc1sc2c(c1C)C(c1ccc(Cl)cc1)=N[C@@H](CC(=O)NCCCCCOC1CCN(c3ncc(C(=O)N[C@H]4C(C)(C)[C@H](Oc5ccc(C#N)c(Cl)c5)C4(C)C)cn3)CC1)c1nnc(C)n1-2 [Compound I-22, N-((1r,3r)-3-(3-chloro-4-cyanophenoxy)-2,2,4,4-tetramethylcyclobutyl)-2-(4-((5-(2-((S)-4-(4-chlorophenyl)-2,3,9-trimethyl-6H-thieno[3,2-A][1,2,4]triazolo[4,3-a][1,4]diazepin-6-yl)acetamido)pentyl)oxy)piperidin-1-yl)pyrimidine-5-carboxamide]
GI50: > 3000 nM

CCNC(=O)C[C@@H]1N=C(c2cccc(OCCOCCOCCOC3CCN(c4ncc(C(=O)N[C@H]5C(C)(C)[C@H](Oc6ccc(C#N)c(Cl)c6)C5(C)C)cn4)CC3)c2)c2c(sc(C)c2C)-n2c(C)nnc21 [Compound I-48, N-((1r,3r)-3-(3-chloro-4-cyanophenoxy)-2,2,4,4-tetramethylcyclobutyl)-2-(4-(2-(2-(2-(3-((S)-6-(2-(ethylamino)-2-oxoethyl)-2,3,9-trimethyl-6H-thieno[3,2-f][1,2,4]triazolo[4,3-a][1,4]diazepin-4-yl)phenoxy)ethoxy)ethoxy)ethoxy)piperidin-1-yl)pyrimidine-5-carboxamide]
GI50: > 3000 nM

Cc1sc2c(c1C)C(c1ccc(OC3CC4(CCN(c5ncc(C(=O)N[C@H]6C(C)(C)[C@H](Oc7ccc(C#N)c(Cl)c7)C6(C)C)cn5)CC4)C3)cc1)=N[C@@H](Cc1ncco1)c1nnc(C)n1-2 [Compound I-49, N-[3-(3-chloro-4-cyano-phenoxy)-2,2,4,4-tetramethyl-cyclobutyl]-2-[2-[4-[(9S)-4,5,13-trimethyl-9-(oxazol-2-ylmethyl)-3-thia-1,8,11,12-tetrazatricyclo[8.3.0.02,6]trideca-2(6),4,7,10,12-pentaen-7-yl]phenoxy]-7-azaspiro[3.5]nonan-7-yl]pyrimidine-5-carboxamide]
GI50: 500 to 1500 nM
